# Measurements published in US7368567B2, “Arylsulfonyl benzodioxanes, benzoxazines and benzothiazines as 5-HT6 antagonists” (Roche Palo Alto LLC, priority 2004, dated 2008).
# Key:
# [1] = biological target: T1, recombinant human 5-HT6 receptor (Homo sapiens, UniProt P50406); test: Radioligand binding, [3H]LSD competition in HEK293 cell membranes; conditions: [3H]LSD displacement, 37° C., pH 7.4, read-out: pKi for the 5-HT6 receptor (converted)
# T1 construct: expressed in transfected cells
# Experimental: (§1) The binding activity of compounds of this invention in vitro was determined as follows. Duplicate determinations of 5-HT6 ligand affinity were made by competing for binding of [^3H]LSD in cell membranes derived from HEK293 cells stably expressing recombinant human 5-HT6 receptor. Duplicate determinations of 5-HT2A ligand affinity were made by competing for binding of [^3H]Ketanserin (3-(2-(4-(4-fluorobenzoyl)piperidinol)ethyl)-2,4(1H,3H)-quinazolinedione) in cell membranes derived from CHO—K1 cells stably expressing recombinant human 5-HT2A receptor. Membranes were prepared from HEK 293 cell lines by the method described by Monsma et al., Molecular Pharmacology, Vol. 43 pp. 320-327 (1993), and from CHO—K1 cell lines as described by Bonhaus et al., Br J Pharmacol. June;1 15(4):622-8 (1995).
# (§2) For estimation of affinity at the 5-HT6 receptor, all determinations were made in assay buffer containing 50 mM Tris-HCl, 10 mM MgSO4, 0.5 mM EDTA, 1 mM ascorbic acid, pH 7.4 at 37° C., in a 250 microliter reaction volume. […]
# (§3) Assay tubes containing [^3H] […] LSD or [^3H]Ketanserin were determined as radioactive counts per minute using Packard TopCount.
# (§4) Displacement of [^3H]LSD or [^3H]Ketanserin from the binding sites was quantified by fitting concentration-binding data to a 4-parameter logistic equation: […]
# [2] = biological target: T2, recombinant human 5-HT2A receptor (Homo sapiens, UniProt P28223); test: Radioligand binding, [3H]Ketanserin competition in CHO-K1 cell membranes; conditions: [3H]Ketanserin displacement, 32° C., pH 7.4, read-out: pKi for the 5-HT2A receptor (converted)
# T2 construct: expressed in transfected cells
# T2 sequence (P28223 whole entry): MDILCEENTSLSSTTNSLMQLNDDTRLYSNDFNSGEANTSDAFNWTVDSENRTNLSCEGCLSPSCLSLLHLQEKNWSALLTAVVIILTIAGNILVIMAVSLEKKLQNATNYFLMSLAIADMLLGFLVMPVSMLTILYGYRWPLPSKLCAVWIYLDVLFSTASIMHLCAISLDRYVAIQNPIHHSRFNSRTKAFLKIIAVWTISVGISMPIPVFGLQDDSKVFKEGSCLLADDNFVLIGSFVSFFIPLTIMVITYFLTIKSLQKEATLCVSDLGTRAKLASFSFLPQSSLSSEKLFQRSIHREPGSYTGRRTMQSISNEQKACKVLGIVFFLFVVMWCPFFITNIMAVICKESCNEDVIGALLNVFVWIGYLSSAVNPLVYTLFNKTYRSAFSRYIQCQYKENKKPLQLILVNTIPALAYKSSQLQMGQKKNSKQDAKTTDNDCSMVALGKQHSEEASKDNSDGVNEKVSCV
# Experimental: as §1, §2, §3, §4
# T1 sequence (P50406 whole entry): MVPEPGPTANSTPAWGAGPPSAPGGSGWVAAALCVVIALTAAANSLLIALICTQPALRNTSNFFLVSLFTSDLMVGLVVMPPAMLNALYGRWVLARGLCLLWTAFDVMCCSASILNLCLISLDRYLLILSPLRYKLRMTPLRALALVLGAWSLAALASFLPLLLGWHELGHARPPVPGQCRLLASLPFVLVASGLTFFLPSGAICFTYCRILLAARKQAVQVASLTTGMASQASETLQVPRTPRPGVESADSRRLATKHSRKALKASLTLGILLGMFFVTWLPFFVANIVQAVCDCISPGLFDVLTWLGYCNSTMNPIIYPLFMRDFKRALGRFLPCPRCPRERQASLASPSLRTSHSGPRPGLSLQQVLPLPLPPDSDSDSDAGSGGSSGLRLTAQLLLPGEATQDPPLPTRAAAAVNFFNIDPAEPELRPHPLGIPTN
Ki [1],melting point,Ki [2],SMILES
~0.166 nM,,,"CNC[C@@H]1COc2ccc(S(=O)(=O)c3ccccc3)cc2O1 [(7-Benzenesulfonyl-2,3-dihydro-benzo[1,4]dioxin-2-(R)-ylmethyl)-methyl-amine]"
,245.8 to 246.4 °C,~18.2 nM,"CNC[C@H]1COc2ccc(S(=O)(=O)c3cccc(F)c3)cc2O1 [[7-(3-Fluoro-benzenesulfonyl)-2,3-dihydro-benzo[1,4]dioxin-2-(S)-ylmethyl]-methyl-amine]"
,279.2 to 279.4 °C,,"O=S(=O)(c1ccccc1)c1ccc2c(c1)O[C@@H](CN1CCNCC1)CO2 (stereo in doubt) [Compound 30, 1-(7-Benzenesulfonyl-2,3-dihydro-benzo[1,4]dioxin-2-ylmethyl)-piperazine]"
,199.2 to 200.8 °C,,"CN(O)C[C@H]1COc2ccc(S(=O)(=O)c3ccccc3)cc2O1 (stereo in doubt) [Compound 33, N-(7-Benzenesulfonyl-2,3-dihydro-benzo[1,4]dioxin-2-ylmethyl)-N-methylhydroxylamine]"
